Results reported in PMC7147261, “Selective Antibacterial Activity and Lipid Membrane Interactions of Arginine-Rich Amphiphilic Peptides” (ACS Applied Bio Materials, 2020).
Ends that are not written are not given here.

Tests used:
[1] = previously reported; cited from earlier work
Procedure: The two “blocky” surfactant-like peptides […] and […] are both able to self-assemble in aqueous solution at concentrations in excess of critical values, obtained from fluorescence probe assays. The cac = 0.3 wt % (≡ 3.2 mM) for […] is higher than that previously obtained for the compositional homologue peptide […], for which the cac = 2.3 mM.[16]

[2] = system: 161br human skin fibroblasts; test: in vitro; assay type: cell-based; details: 72 h, 0.05 wt %
Procedure: (§1) The cytotoxicity of both R3F3 and R4F4 was examined. In vitro cell culture was conducted using 161Br (European Collection of Authenticated Cell Cultures, ECACC) cells, a human skin fibroblast cell line. Cells were cultured in EMEM (Eagle’s minimum essential medium), with 2 mM glutamine, enriched with 15% fetal bovine serum (FBS) and 1% nonessential amino acids (NEAA). Cells were maintained in a humidified atmosphere of 37 °C, 5% CO2.
(§2) Potential cytotoxicity effects were examined using the MTT (3-(4,5-dimethylthiazol-2-yl)-2,5-diphenyltetrazolium bromide) assay. The peptides were dissolved in complete media. Cells were seeded into a 96-well plate at 4 × 10^4 cells/mL and allowed to adhere for 24 h in 100 μL complete medium. After this, 100 μL of either complete media and/or peptide solution was added, to give either control solution, or solutions of peptide between the concentrations of 0.0625–4 mg/mL.
(§3) Cells were incubated for 67 h. After this, 20 μL MTT (5 mg/mL, in PBS) was added to each well plate and allowed to incubate for 5 h. After a further 5 h (72 h total), the solution was removed from the wells and replaced with 100 μL of DMSO per well, which dissolves the formazan crystals. Plates were incubated for 30 min, and then analyzed using a UV microplate reader (λ = 570 nm). Results are reported as a percentage cell viability compared to control (untreated) values, and fitted to a sigmoidal function using Origin Lab as a guide to the eye.
(§4) Figure S2. CD data for a) R3F3 and b) R4F4 with DPPG (concentrations indicated) .
(§5) Figure S3. Cytotoxicity profiles from MTT assays, where 161br Human fibroblasts were exposed to
(§6) (a) R3F3 and (b) R4F4 for 72 hours. Control solutions were prepared by incubating cells with complete
(§7) media. Results are reported as a percentage compared to the control solutions. Error bars are the
(§8) standard deviation of 3 biological replicates (with 3 technical replicates pe r assay). IC50 values
(§9) (vertical blue dashed lines) were calculated in Origin using sigmoidal fits to the viability data (dashed […]

in vitro = assay type: cell-based, human; details: human
Procedure: as §1, §2, §3, §4, §5, §6, §7, §8, §9

Substance | cac of compositional homologue peptide [1] [mM] | viability of human skin fibroblasts [2] [%] | IC50 at 72 h (in vitro) [mM]
RFRFRF [previously studied alternating RF peptide, compositional homologue of R3F3] | 2.3 | – | –
RFRFRFRF [[RF]4, previously studied oligopeptide of alternating RF motifs, compositional homologue of R4F4] | 0.34 | – | –
RRRFFF [R3F3] | – | 77 | 4.31
RRRRFFFF [R4F4] | – | 81 | 2.15
